# From patent publication US8927738B2, “2-arylimidazole derivatives as PDE10A enzyme inhibitors” (H. Lundbeck A/S, priority 2009, dated 2015)
# Tested on: rats
# Experiment: not given
# Conditions: cited from earlier work
row,SMILES,hyperactivity induced by PCP
1,"COc1ccc(Cc2nccc3cc(OC)c(OC)cc23)cc1OC [Papaverine, papaverine]",reduced hyperactivity

# Molecular target: PDE10A enzyme (Homo sapiens (Human), UniProt Q9Y233)
# Experiment: PDE10A inhibition assay
# Assay type: biochemical
# Conditions: tritium labeled cAMP substrate 5 nM
# Experimental: Active PDE10A enzyme is prepared in a number of ways for use in PDE assays (Loughney, K. et al. Gene 1999, 234, 109-117; Fujishige, K. et al. Eur J Biochem. 1999, 266, 1118-1127 and Soderling, S. et al. Proc. Natl. Acad. Sci. 1999, 96, 7071-7076). PDE10A can be expressed as full-length proteins or as truncated proteins, as long as they express the catalytic domain. PDE10A can be prepared in different cell types, for example insect cells or E. coli. An example of a method to obtain catalytically active PDE10A is as follows: The catalytic domain of human PDE10A (amino acids 440-779 from the sequence with accession number NP 006652) is amplified from total human brain total RNA by standard RT-PCR and is cloned into the BamH1 and Xho1 sites of the pET28a vector (Novagen). Expression in coli is performed according to standard protocols. Briefly, the expression plasmids are transformed into the BL21(DE3) E. coli strain, and 50 mL cultures inoculated with the cells allowed to grow to an OD600 of 0.4-0.6 before protein expression is induced with 0.5 mM IPTG. Following induction, the cells are incubated overnight at room temperature, after which the cells are collected by centrifugation. Cells expressing PDE10A are resuspended in 12 mL (50 mM TRIS-HCl-pH8.0, 1 mM MgCl2 and protease inhibitors). The cells are lysed by sonication, and after all cells are lysed, TritonX100 is added according to Novagen protocols.
# A PDE10A assay may for example, be performed as follows: The assay is performed in 60 uL samples containing a fixed amount of the relevant PDE enzyme (sufficient to convert 20-25% of the cyclic nucleotide substrate), a buffer (50 mM HEPES7.6; 10 mM MgCl2; 0.02% Tween20), 0.1 mg/ml BSA, 225 pCi of ^3H-labelled cyclic nucleotide substrate, tritium labeled cAMP to a final concentration of 5 nM and varying amounts of inhibitors. Reactions are initiated by addition of the cyclic nucleotide substrate, and reactions are allowed to proceed for one hr at room temperature before being terminated through mixing with 15 uL 8 mg/mL yttrium silicate SPA beads (Amersham). The beads are allowed to settle for one hr in the dark before the plates are counted in a Wallac 1450 Microbeta counter. The measured signal can be converted to activity relative to an uninhibited control (100%) and IC50 values can be calculated using the Xlfit extension to EXCEL.
# Chain of PDE10A enzyme (Q9Y233 716-1055): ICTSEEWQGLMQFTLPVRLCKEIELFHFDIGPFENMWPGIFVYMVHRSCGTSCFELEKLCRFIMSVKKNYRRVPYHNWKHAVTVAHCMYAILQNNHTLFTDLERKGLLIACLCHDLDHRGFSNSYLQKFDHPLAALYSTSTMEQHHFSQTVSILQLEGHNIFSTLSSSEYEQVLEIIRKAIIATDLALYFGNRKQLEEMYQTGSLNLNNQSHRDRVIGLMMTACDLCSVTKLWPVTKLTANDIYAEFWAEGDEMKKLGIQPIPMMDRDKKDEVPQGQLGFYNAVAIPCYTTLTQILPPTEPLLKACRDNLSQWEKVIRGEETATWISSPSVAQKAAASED
row,IC50,SMILES
1,23 nM,"CCc1ccc(C)n2nc(CCc3cn(C)c(-c4ccccc4)n3)nc12 [8-Ethyl-5-methyl-2-[2-(1-methyl-2-phenyl-1H-imidazol-4-yl)-ethyl]-[1,2,4]triazolo[1,5-a]pyridine]"
2,45 nM,"Cc1ncc(C)n2nc(CCc3cn(C)c(-c4ccccc4)n3)nc12 [5,8-Dimethyl-2-[2-(1-methyl-2-phenyl-1H-imidazol-4-yl)-ethyl]-[1,2,4]triazolo[1,5-a]pyrazine]"
3,79 nM,"COc1ccc(C)n2nc(CCc3cn(C)c(-c4ccccc4)n3)nc12 [8-Methoxy-5-methyl-2-[2-(1-methyl-2-phenyl-1H-imidazol-4-yl)-ethyl]-[1,2,4]triazolo[1,5-a]pyridine]"
4,12 nM,"Cc1ncc(C)n2nc(CCc3c[nH]c(-c4ccc(F)cc4)n3)nc12 [2-{2-[2-(4-Fluoro-phenyl)-1H-imidazol-4-yl]-ethyl}-5,8-dimethyl-[1,2,4]triazolo[1,5-a]pyrazine]"
5,3.1 nM,"Cc1ccc(C)n2nc(CCc3c[nH]c(-c4cncs4)n3)nc12 [5,8-Dimethyl-2-[2-(2-thiazol-5-yl-1H-imidazol-4-yl)-ethyl]-[1,2,4]triazolo[1,5-a]pyridine]"
6,4.2 nM,"Cc1ncc(C)n2nc(CCc3c[nH]c(-c4ccccc4)n3)nc12 [5,8-Dimethyl-2-[2-(2-phenyl-1H-imidazol-4-yl)-ethyl]-[1,2,4]triazolo[1,5-a]pyrazine]"
7,7.7 nM,"Cc1ncc(C)n2nc(CCc3cn(C)c(-c4nccs4)n3)nc12 [5,8-Dimethyl-2-[2-(1-methyl-2-thiazol-2-yl-1H-imidazol-4-yl)-ethyl]-[1,2,4]triazolo[1,5-a]pyrazine]"
8,0.62 nM,"Cc1ccc(C)n2nc(CCc3c[nH]c(-c4ccco4)n3)nc12 [2-[2-(2-Furan-2-yl-1H-imidazol-4-yl)-ethyl]-5,8-dimethyl-[1,2,4]triazolo[1,5-a]pyridine]"
9,5.9 nM,"COc1ccc(C)n2nc(CCc3c[nH]c(-c4ccccc4)n3)nc12 [8-Methoxy-5-methyl-2-[2-(2-phenyl-1H-imidazol-4-yl)-ethyl]-[1,2,4]triazolo[1,5-a]pyridine]"
10,1 nM,"Cc1ncc(C)n2nc(CCc3cn(C)c(-c4cccs4)n3)nc12 [5,8-Dimethyl-2-[2-(1-methyl-2-thiophen-2-yl-1H-imidazol-4-yl)-ethyl]-[1,2,4]triazolo[1,5-a]pyrazine]"
11,3.5 nM,"Cc1ccc(C)n2nc(CCc3c[nH]c(-c4cscn4)n3)nc12 [5,8-Dimethyl-2-[2-(2-thiazol-4-yl-1H-imidazol-4-yl)-ethyl]-[1,2,4]triazolo[1,5-a]pyridine]"
12,11 nM,"Cc1ncc(C)n2nc(CCc3cn(C)c(-c4cscn4)n3)nc12 [5,8-Dimethyl-2-[2-(1-methyl-2-thiazol-4-yl-1H-imidazol-4-yl)-ethyl]-[1,2,4]triazolo[1,5-a]pyrazine]"
13,0.63 nM,"Cc1ncc(C)n2nc(CCc3c[nH]c(-c4nccs4)n3)nc12 [5,8-Dimethyl-2-[2-(2-thiazol-2-yl-1H-imidazol-4-yl)-ethyl]-[1,2,4]triazolo[1,5-a]pyrazine]"
14,0.27 nM,"Cc1ncc(C)n2nc(CCc3c[nH]c(-c4ccoc4)n3)nc12 [2-[2-(2-Furan-3-yl-1H-imidazol-4-yl)-ethyl]-5,8-dimethyl-[1,2,4]triazolo[1,5-a]pyrazine]"
15,6.5 nM,"Cc1ncc(C)n2nc(CCc3c[nH]c(-c4cncs4)n3)nc12 [5,8-Dimethyl-2-[2-(2-thiazol-5-yl-1H-imidazol-4-yl)-ethyl]-[1,2,4]triazolo[1,5-a]pyrazine]"
16,1.1 nM,"Cc1ncc(C)n2nc(CCc3cn(C)c(-c4ccco4)n3)nc12 [2-[2-(2-Furan-2-yl-1-methyl-1H-imidazol-4-yl)-ethyl]-5,8-dimethyl-[1,2,4]triazolo[1,5-a]pyrazine]"
17,0.97 nM,"Cc1ncc(C)n2nc(CCc3c[nH]c(-c4ccco4)n3)nc12 [2-[2-(2-Furan-2-yl-1H-imidazol-4-yl)-ethyl]-5,8-dimethyl-[1,2,4]triazolo[1,5-a]pyrazine]"
18,22 nM,"Cc1ncc(C)n2nc(CCc3cn(C)c(-c4cncs4)n3)nc12 [5,8-Dimethyl-2-[2-(1-methyl-2-thiazol-5-yl-1H-imidazol-4-yl)-ethyl]-[1,2,4]triazolo[1,5-a]pyrazine]"
19,3.5 nM,"Cc1ncc(C)n2nc(CCc3c[nH]c(-c4cscn4)n3)nc12 [5,8-Dimethyl-2-[2-(2-thiazol-4-yl-1H-imidazol-4-yl)-ethyl]-[1,2,4]triazolo[1,5-a]pyrazine]"
20,0.75 nM,"Cc1ccc(C)n2nc(CCc3cn(C)c(-c4ccco4)n3)nc12 [2-[2-(2-Furan-2-yl-1-methyl-1H-imidazol-4-yl)-ethyl]-5,8-dimethyl-[1,2,4]triazolo[1,5-a]pyridine]"
21,0.65 nM,"Cc1ccc(C)n2nc(CCc3c[nH]c(-c4ccoc4)n3)nc12 [2-[2-(2-Furan-3-yl-1H-imidazol-4-yl)-ethyl]-5,8-dimethyl-[1,2,4]triazolo[1,5-a]pyridine]"
22,3.5 nM,"Cc1ccc(-c2nc(CCc3nc4c(C)ncc(C)n4n3)cn2C)o1 [5,8-Dimethyl-2-{2-[1-methyl-2-(5-methyl-furan-2-yl)-1H-imidazol-4-yl]-ethyl}-[1,2,4]triazolo[1,5-a]pyrazine]"
23,9 nM,"COc1ccc(C)n2nc(CCc3cn(C)c(-c4cccs4)n3)nc12 [8-Methoxy-5-methyl-2-[2-(1-methyl-2-thiophen-2-yl-1H-imidazol-4-yl)-ethyl]-[1,2,4]triazolo[1,5-a]pyridine]"
24,0.34 nM,"Cc1ccc(C)n2nc(CCc3c[nH]c(-c4cccs4)n3)nc12 [5,8-Dimethyl-2-[2-(2-thiophen-2-yl-1H-imidazol-4-yl)-ethyl]-[1,2,4]triazolo[1,5-a]pyridine]"
25,0.4 nM,"Cc1ncc(C)n2nc(CCc3c[nH]c(-c4cccs4)n3)nc12 [5,8-Dimethyl-2-[2-(2-thiophen-2-yl-1H-imidazol-4-yl)-ethyl]-[1,2,4]triazolo[1,5-a]pyrazine]"
26,1.6 nM,"Cc1ccc(C)n2nc(CCc3c[nH]c(-c4nccs4)n3)nc12 [5,8-Dimethyl-2-[2-(2-thiazol-2-yl-1H-imidazol-4-yl)-ethyl]-[1,2,4]triazolo[1,5-a]pyridine]"

# Tested on: rats
# Experiment: not given
# Conditions: papaverine alone; cited from earlier work
row,SMILES,catalepsy caused on its own
1,"COc1ccc(Cc2nccc3cc(OC)c(OC)cc23)cc1OC [Papaverine, papaverine]",did not cause catalepsy on its own

# Same assay, conditions: with the D2 receptor antagonist haloperidol; cited from earlier work
row,SMILES,effect on the cataleptic effect of haloperidol
1,"COc1ccc(Cc2nccc3cc(OC)c(OC)cc23)cc1OC [Papaverine, papaverine]",potentiated the cataleptic effect

# Tested on: rats
# Experiment: not given
# Conditions: cited from earlier work
# Remark: another data set of the same source
row,SMILES,reduction of amphetamine induced hyperactivity
1,"COc1ccc(Cc2nccc3cc(OC)c(OC)cc23)cc1OC [Papaverine, papaverine]",insignificant
